Where two headings read alike, the source gives them in different places. Values belong to the molecule of their own block, whether it stands above or below them.
What was measured:
rat sEH = target: T1, rat sEH (Rattus norvegicus, UniProt P80299); assay: Relative turnover of arachidonic acid epoxides by rat sEH; format: biochemical; settings: for Relative EET Turnover: Table 20, arachidonic acid epoxides with the rat sEH; for relative substrate turnover of the epoxy arachidonates: 1:1:2 mixture of 8,9-, 11,12-, and 14,15-EET hydrolyzed to 30% by rat renal cortex cytosol
T1 construct: was hydrolyzed to 30% by rat renal cortex cytosol; from tissue; host or cells: rat renal cortex cytosol
T1 sequence (P80299 1-554): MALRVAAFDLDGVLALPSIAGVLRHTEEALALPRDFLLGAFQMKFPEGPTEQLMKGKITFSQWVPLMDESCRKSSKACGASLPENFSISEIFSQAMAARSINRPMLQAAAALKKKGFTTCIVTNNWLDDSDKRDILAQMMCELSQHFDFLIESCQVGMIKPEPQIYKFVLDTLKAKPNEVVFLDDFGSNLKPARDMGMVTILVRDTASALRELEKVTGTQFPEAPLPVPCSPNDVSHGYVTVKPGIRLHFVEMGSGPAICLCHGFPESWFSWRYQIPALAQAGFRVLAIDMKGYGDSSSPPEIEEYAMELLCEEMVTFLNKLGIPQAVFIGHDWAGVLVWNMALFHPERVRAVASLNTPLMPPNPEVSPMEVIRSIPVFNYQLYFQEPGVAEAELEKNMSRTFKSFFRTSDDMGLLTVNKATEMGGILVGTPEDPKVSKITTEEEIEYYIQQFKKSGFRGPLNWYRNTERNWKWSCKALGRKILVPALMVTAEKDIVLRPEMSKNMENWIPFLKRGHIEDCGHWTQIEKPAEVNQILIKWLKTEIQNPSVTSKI
Procedure: For epoxy fatty acid hydrolysis, the soluble epoxide hydrolase prefers substrates with epoxide moieties that are more distant from the carboxyl terminal. Specifically the substrate preference decreases in the order of 14,15-EET >11,12-EET >8,9-EET >>>5,6-EET for the epoxides of arachidonic acid. Independently, the relative substrate turnover of the epoxy arachidonates were calculated at 0.1:8.1:14.3 when a 1:1:2 mixture of 8,9-, 11,12-, and 14,15-EET fatty acid was hydrolyzed to 30% by rat renal cortex cytosol. By considering the primary pharmacophore of the urea to be a transition-state analog of epoxide hydrolysis, preferred inhibitors have now been developed which incorporate long aliphatic acids. These compounds are better substrate and transition state mimics than those incorporating shorter aliphatic acids. Accordingly, optimal soluble epoxide hydrolase inhibitors can be obtained by producing compounds with aliphatic acid substituents (i.e. a tertiary pharmacophore) which are separated from the primary pharmacophore by an equivalent distance as the terminal acid is separated from the epoxide in optimal substrates. Within the enzyme active site, epoxy fatty acids have been predicted to exist in an extended or pseudo-linear confirmation. Therefore, both the epoxy fatty acids and the aliphatic acid containing urea structures were approximated as two dimensional linear representations and measurements were made on each species. The critical measurements taken were distances (in angstroms) from the carboxylate hydroxyl to the urea carbonyl and the urea nitrogens.

[1] = Metabolic stability in rat hepatic microsomes with NADPH generating system; format: in vitro ADME; settings: rat, microsomes
Procedure: FIG. 6 is a graph illustrating the metabolic stabilities of 1-adamantyl-3-dodecyl urea (686) and 1-cyclohexyl-3-dodecyl urea (297) in rat hepatic microsomes. Microsomes were incubated with 1 μM 686 or 297 in the presence of an NADPH generating system. Data are expressed as mean ±SD of triplicate experiments.
To evaluate the metabolic stability of these inhibitors, the microsomal and NADPH dependent metabolism of a number of potent sEH inhibitors was evaluated. […] The first step in the metabolic transformation of the n-alkyl to n-alkanoic acid derivatives is an NAPDH dependent process carried out by cytochrome P450 dependent omega hydroxylation in rodent and human hepatic tissue preparations (see FIG. 8). When in vivo metabolism was evaluated, evidence for the beta-oxidation of the alkanoic acid derivatives was also found (see FIG. 9).

mouse sEH = target: T2, mouse sEH (Mus musculus, UniProt P34914); assay: Inhibition of recombinant mouse sEH, IC50 assay with 4-nitrophenyl-trans-2,3-epoxy-3-phenylpropyl carbonate as substrate; format: biochemical; settings: read-out: IC50 (μM) Mouse sEH
T2 construct: made in house; host or cells: baculovirus expression system
T2 sequence (P34914 1-554): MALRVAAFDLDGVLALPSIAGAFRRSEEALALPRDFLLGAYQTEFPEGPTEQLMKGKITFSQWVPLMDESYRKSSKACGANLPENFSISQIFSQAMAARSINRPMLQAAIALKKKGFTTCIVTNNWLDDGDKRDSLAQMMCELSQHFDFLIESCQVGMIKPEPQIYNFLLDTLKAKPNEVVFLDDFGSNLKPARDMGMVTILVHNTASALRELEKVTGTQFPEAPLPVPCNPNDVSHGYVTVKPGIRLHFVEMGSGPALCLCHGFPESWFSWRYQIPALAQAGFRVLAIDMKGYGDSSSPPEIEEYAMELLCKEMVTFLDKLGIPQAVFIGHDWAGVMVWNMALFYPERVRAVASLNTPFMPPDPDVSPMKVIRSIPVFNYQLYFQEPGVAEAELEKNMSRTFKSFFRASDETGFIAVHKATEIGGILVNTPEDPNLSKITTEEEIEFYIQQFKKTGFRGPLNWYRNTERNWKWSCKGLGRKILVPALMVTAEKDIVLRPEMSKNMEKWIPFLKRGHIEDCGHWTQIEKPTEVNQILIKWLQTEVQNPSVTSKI
Procedure: (§1) Assays were performed in triplicate. […] The curve was generated from at least three separate runs, each in triplicate, to obtain the standard deviation (SD) given in Table 1 thru Table 4.

human sEH = target: T3, human sEH (Homo sapiens, UniProt P34913); assay: Inhibition of recombinant human sEH, IC50 assay with 4-nitrophenyl-trans-2,3-epoxy-3-phenylpropyl carbonate as substrate; format: biochemical
T3 construct: made in house; host or cells: baculovirus expression system
T3 sequence (P34913 1-555): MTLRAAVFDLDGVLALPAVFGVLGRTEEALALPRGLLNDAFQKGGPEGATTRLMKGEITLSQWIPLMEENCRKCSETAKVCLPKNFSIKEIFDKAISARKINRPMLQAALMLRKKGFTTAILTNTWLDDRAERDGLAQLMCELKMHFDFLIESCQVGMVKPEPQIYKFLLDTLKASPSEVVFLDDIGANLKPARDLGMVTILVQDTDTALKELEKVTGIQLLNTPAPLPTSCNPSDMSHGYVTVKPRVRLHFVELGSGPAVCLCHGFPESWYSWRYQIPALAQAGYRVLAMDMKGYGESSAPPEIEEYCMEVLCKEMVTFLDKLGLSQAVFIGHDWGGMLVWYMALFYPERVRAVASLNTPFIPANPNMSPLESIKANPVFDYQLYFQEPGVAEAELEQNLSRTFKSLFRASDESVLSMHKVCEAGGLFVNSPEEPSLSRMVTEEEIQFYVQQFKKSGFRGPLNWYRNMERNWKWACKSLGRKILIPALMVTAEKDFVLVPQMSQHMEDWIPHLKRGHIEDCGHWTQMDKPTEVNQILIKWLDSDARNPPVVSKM
Procedure: as §1

[2] = Pharmacokinetics after oral gavage in mice; format: in vivo, mouse; settings: 5 mg/kg orally
Procedure: Animals. Male Swiss Webster mice, 6 weeks-old, were obtained from Charles River (Calif., USA). […] The body weight of animals used in all the experiments ranged from 28 g to 38 g. […] Administration and measurement. […] Then the samples were centrifuged at 6000 rpm for 5 min, and the ethyl acetate layer was dried under nitrogen. The residue was reconstituted in 25 μL of methanol, and aliquots (5 μL) were injected onto the LC-MS/MS system. Analysis. Pharmacokinetics analysis was performed using SigmaPlot software system (SPSS science, Chicago, Ill.). […] AUC=a/b Where: • C=the total blood concentration at time t • a=the extrapolated zero intercept b=the apparent first-order elimination rate constant

Water solubility = format: physicochemical; settings: for solubility relative to the corresponding cyclohexyl derivative: 772 vs. 789, 791 vs. 790, 297 vs. 686; for water solubility: compared with non-functionalized lipophilic inhibitors (791, 790)
mouse and human sEH = assay: sEH IC50 assay, comparisons of the text made for both enzymes or without naming the enzyme; format: biochemical
Procedure: as §1

[3] = Blood concentration after oral administration of 950 and AUDA-nBE, human pharmacokinetic profile; format: in vivo; settings: see FIGS. 15-27
Procedure: FIG. 16 provides a sample preparation procedure for a pharmacokinetic study. A 5 μl whole blood sample was drawn into a capillary at a specific time point, each sample was extracted and anaylzed by LC/MS-MS. […] AUDA is the active metabolite of AUDA-nBE. […] 0.05 mg/kg. (B). 0.1 mg/kg. […] The compounds were administered at the same time in the same formulation. […] 21 mg (0.3 mg/kg) 950 and AUDA-nBE were orally administrated with starch. (B). 7 mg (0.1 mg/kg) formulated 950 and AUDA-NBE were taken with (HPMC, starch and lactose). (C). […] 950 with HPMC and Starch. (B). 950 in lactose and HPMC. […] HPMC forms a gel which slowly erodes; lactose enhances erosion at it moves through the gut and starch retards it. These formulations are combined, ball milled, and then placed in ‘0’ capsule and not compressed.

[4] = Effect of compound 950 and of Norvasc on blood pressure; format: in vivo; settings: 950 0.05 mg/Kg per day
[5] = Table 2, […] enzyme, 5 min preincubation, pH 7.4, 30° C., means ± SD, read-out: IC50 (μM) Human sEH
[6] = Table 2, […] enzyme, 5 min preincubation, pH 7.4, 30° C., means ± SD

- Relative EET Turnover (rat sEH): 0.1
Structure (SMILES): CCCCC/C=C\C/C=C\C/C=C\CC1OC1CCCC(=O)O (stereo not shown) [5,6-EET]

- relative substrate turnover of the epoxy arachidonates (rat sEH): 0.1
- Relative EET Turnover (rat sEH): 1
Structure (SMILES): CCCCC/C=C\C/C=C\CC1OC1C/C=C\CCCC(=O)O (stereo not shown) [8,9-EET]

- relative substrate turnover of the epoxy arachidonates (rat sEH): 8.1
- Relative EET Turnover (rat sEH): 8.1
Structure (SMILES): CCCCC/C=C\C[C@H]1O[C@H]1C/C=C\C/C=C\CCCC(=O)O [11,12-EET]

- relative substrate turnover of the epoxy arachidonates (rat sEH): 14.3
- Relative EET Turnover (rat sEH): 14.3
Structure (SMILES): CCCCCC1OC1C/C=C\C/C=C\C/C=C\CCCC(=O)O (stereo not shown) [14,15-EET]

- metabolic stability in microsomal preparations [1]: improved stability
Structure (SMILES): O=C(NC1CCCCC1)NC12CC3CC(CC(C3)C1)C2 [Compound 192, 1-adamantyl-3-cyclohexylurea]

- IC50 (mouse sEH; Table 2, 0.12 μM enzyme, 5 min preincubation, pH 7.4, 30° C., means ± SD): 0.05 ± 0.01 µM
- IC50 (human sEH; [5]): 0.1 ± 0.01 µM
- time to reach the maximum concentration [2]: 2 h
- solubility relative to the corresponding cyclohexyl derivative (Water solubility): approximately 2 x
Structure (SMILES): CCCCCCCCCCCCNC(=O)NC12CC3CC(CC(C3)C1)C2 [Compound 686, 1-adamantyl-3-dodecylurea, reference compound]

Structure (SMILES): CCCCCOC(=O)CCCNC(=O)Nc1cccc(Cl)c1 [Compound 767, 1-(3-chlorophenyl)-3-(3-pentoxycarbonylpropyl)urea]
- IC50 (mouse sEH; Table 3, […] enzyme, 5 min preincubation, pH 7.4, 30° C., means ± SD): 0.37 ± 0.04 µM
- IC50 (human sEH; Table 3, […] enzyme, 5 min preincubation, pH 7.4, 30° C., means ± SD, read-out: IC50 (μM) Human sEH): 2.1 ± 0.07 µM
- better inhibition than 761 (mouse and human sEH; methylene carbon left versus right of the carbonyl): 20 fold

Structure (SMILES): CCCCCOC(=O)CCCNC(=O)NC1CCCCC1 [Compound 772, 1-Cyclohexyl-3-(3-pentoxycarbonylpropyl)urea]
- IC50 (mouse sEH; [6]): 0.05 ± 0.01 µM
- IC50 (human sEH; [5]): 1.02 ± 0.05 µM
- increase of inhibitor potency over the 3-chlorophenyl analog (767) (mouse and human sEH): 10 fold
- water solubility (Water solubility): increases their water solubility

Structure (SMILES): COC(=O)CCCNC(=O)NC1CCCCC1 [Compound 774]
- IC50 (mouse sEH; Table 1, 0.12 μM enzyme, 5 min preincubation, pH 7.4, 30° C., [S] = 40 μM, means ± SD of three experiments): 0.33 ± 0.03 µM
- IC50 (human sEH): 6.2 ± 0.5 µM
- fold higher activity than the esters of acetic and propanoic acids (549 and 635) (mouse and human sEH; for both enzymes): 8-100 fold

Structure (SMILES): CCCCCOC(=O)CCCNC(=O)NC12CC3CC(CC(C3)C1)C2 [Compound 789]
- IC50 (mouse sEH; [6]): 0.05 ± 0.01 µM
- IC50 (human sEH; [5]): 0.17 ± 0.01 µM
- increase of inhibitor potency over the 3-chlorophenyl analog (767) (mouse and human sEH): 10 fold
- solubility relative to the corresponding cyclohexyl derivative (Water solubility): approximately 2 x
- water solubility (Water solubility): increases their water solubility

- IC50 (mouse sEH; [6]): 0.05 ± 0.01 µM
- IC50 (human sEH; [5]): 0.1 ± 0.01 µM
- solubility relative to the corresponding cyclohexyl derivative (Water solubility): approximately 2 x
Structure (SMILES): CCCCCCCCCCNC(=O)NC12CC3CC(CC(C3)C1)C2 [Compound 790, reference compound]

- IC50 (mouse sEH; Table 7, established protocols): 0.05 ± 0.01 µM
- IC50 (human sEH; Table 7, established protocols, read-out: IC50 (μM) Human sEH): 0.16 ± 0.01 µM
- water solubility (Water solubility): increased water solubility
- pharmacokinetics [3]: improved pharmacokinetics
Structure (SMILES): COCCOCCCCCNC(=O)NC12CC3CC(CC(C3)C1)C2 [Compound 908]

Structure (SMILES): CCOC(=O)C1=C(COCCN)NC(C)=C(C(=O)OC)C1c1ccccc1Cl (stereo not shown) [Norvasc]
- Systolic Avg. ([4]; Norvasc 5.0 mg per day (separate experiment), W/O 950 151, W/O Norvasc 145): 143
- Pulse Avg. ([4]; Norvasc 5.0 mg per day, W/O 950 97, W/O Norvasc 79): 89
- Diastolic Avg. ([4]; Norvasc 5.0 mg per day, W/O 950 103, W/O Norvasc 100): 95
